Measured values from patent publication US20070037833A1, “Compositions and methods for inhibiting neurodegeneration” (priority 2005, published 2007).
Values joined by “and” are separate entries in the source; they are usually repeats but may differ in a detail not shown here. Equal values may be shown once. “Also recorded” adds a separate entry of the source.

How the values were obtained:
[1] = test system: motor neurons in embryonic rat spinal cord cultures; assay: Excitotoxicity assay (100 μM kainic acid) in mixed spinal cord cultures; assay type: cell-based; details: for excitotoxic motor neuron death: drug for 4 days (added 4 and 2 days) prior to 100 μM kainic acid 1 h, SMI-32(+) motor neurons counted 24 h later; for % of motor neurons killed (cell death) after excitotoxic insult: 4 day pre-treatment prior to 100 μM kainic acid
Experimental: Unless otherwise specified, BDNF was added to all cultures.
Many previous in vitro investigations have identified motor neurons in mixed spinal cord cell culture by immunostaining for non-phosphorylated neurofilaments (or peripherin) and restricting analysis to cells with a soma diameter of 25 μm or greater (Carriedo et al., 2000; Hu and Kalb, 2003). We wanted to confirm the validity of this approach using an independent method for determining whether a given cell is a motor neuron. To specifically identify motor neurons in our cultures we purified these cells by metrizamide gradient and immunopanning techniques (Henderson et al., 1993; Fryer et al., 1999), live-labeled them with CM-DiI, and added these fluorescently-tagged, bona fide motor neurons to mixed cell cultures at the time of initial plating. All CM-DiI labeled cells stained for motor neurons markers such as non-phosphorylated neurofilament H (using antibody, SMI-32), peripherin, choline acetyl transferase (ChAT) and islet ½ (FIG. 1, panel a.). We then subjected spinal cord cultures to an excitotoxic insult and determined motor neuron survival using multiple methods for identifying motor neurons. […] Since all SMI-32 (+) cells with cell body diameter of 25 μm or greater were CM-DiI (+) and all CM-DiI (+) cells were SMI-32 (+), for the remainder of the studies herein, we could confidently study motor neuron death in vitro by counting SMI-32 (+) cells with a cell body diameter of 25 μm or greater.

[2] = test system: motor neurons expressing G85R SOD; assay: Motor neuron death from HSV-expressed mutant SOD in spinal cord cultures; assay type: cell-based, rat; details: 6 days post-infection; treatment daily or every other day
Source text: (§1) Various cDNAs were cloned into the PrpUC amplicon plasmid and were used to generate recombinant HSV as previously described (Neve et al., 1997). The titer of viruses used in these studies were routinely 3-5×10^7 plaque-forming units/ml. The cDNA for wild type/mutant SOD and wild type/mutant p150^glued were gifts of D. Borchelt and E. Holzbaur, respectively. The K295R mutant version of chick src was a gift of J. Brugge.
(§2) Mutations in superoxide dismutase (SOD) or the p150^glued subunit of dynactin are known to account for a familial form of ALS in a subpopulation of individuals (Rosen, 1993; Puls et al., 2003; Bruijn et al., 2004). We inquired whether expression the mutant forms of SOD or p150^glued caused motor neuron death in vitro and if Trk antagonism was neuroprotective. Recombinant herpes simplex viruses (HSVs) were generated that expressed wild type or mutant form of SOD (G85R) and wild type or mutant p150^glued (G59S). […] Spinal cord cultures were infected with virus at 14 DIV and the number of motor neurons was determined 2, 4, 6 or 8 days later (FIG. 4, panel a.).
(§3) We next determined if KW6002 could protect motor neurons from the toxic effects of mutant proteins. Spinal cord cultures were infected with viruses expressing wild type or mutant versions of SOD or p150^glued at 14 DIV, then treated with drug or vehicle for 4 days (FIG. 4, panel b.). […]

[3] = test system: motor neurons expressing G59S p150^glued; assay: Motor neuron death from HSV-expressed mutant p150glued in spinal cord cultures; assay type: cell-based, rat; details: 6 days post-infection; treatment daily or every other day
Source text: as §1, §2, §3

[4] = test system: motor neurons in embryonic rat spinal cord cultures; details: Mojsilovic-Petrovic et al., 2005; cited from earlier work
Trk = assay: Immunoblot for phosphoTrk in spinal cord cultures; assay type: cell-based, rat; details: 24 hours treatment
Experimental: (§4) Cells were lysed in 1% NP-40 lysis buffers containing protease inhibitors, subjected to SDS-PAGE and immunoblotted as previously described (Fryer et al., 1999; Fryer et al., 2000). For immunoprecipitation, lysates from 60 mm dishes were pre-cleared by incubation with protein A beads (Santa Cruz), incubated with primary antibody (4 μg/ml)×2 hours then 50 μL of beads added and incubated overnight with gentle agitation at 4° C. Beads were pelleted, washed 5× with 10 mM Tris pH 7.4+0.5 mM EGTA+0.5 mM EDTA+0.1% NP40 before elution in 1× Laemelli sample buffer. Antibody sources: BD Transduction Labs—TrkB and MAP Kinase used at 1:500, Cell Signaling—Akt 1:1000; phosphoTrk (tyr490) 1:1000; phospho p42/44 MAP Kinase (thr 202/tyr204) 1:1000; phosphoAkt (ser473) 1:500; IGFI antibody (tyr 1131) 1:500. Upstate—adenosine A2a 1:1000. Sigma—actin 1:200. Biosource—active src (clone 28) 1:200.
(§5) We next asked about the effect of the adenosine A2 receptor antagonism on Trk signaling. Cultures of spinal cord cells (grown in the presence of a cocktail of trophic factors including 10 ng/ml BDNF) received KW6002 (1 μM), MRS1754 (50 nM) or vehicle (DMSO 0.1%) and 24 hrs. later, lysates were prepared for immunoblots for Trk and the MAP kinase downstream signaling module (FIG. 2, panel a). Immunoblots for phosphoTrk and phosphoMAPK were employed to monitor the state of activation of these proteins.
(§6) We followed up these observations by determining the effect of enprofylline on Trk signaling and determined the extent to which the resultant biochemical changes mimic the effects of direct pharmacological Trk antagonism with CEP4416. […] The effect of drug treatment on AKT was particularly marked. […] To determine the specificity of these agents, we examined their effect on Insulin-like growth factor 1 (IGF1) signaling through the IGF receptor tyrosine kinase (IGFR). […] It is unlikely that phosphodiesterase activity of enprofylline can explain these observations as increased cAMP levels enhance, not suppress, TrkB activation (Boulanger and Poo, 1999; Ji et al., 2005).

MAP kinase = assay: Immunoblot for phosphoMAPK in spinal cord cultures; assay type: cell-based, rat; details: 24 hours treatment
Experimental: as §4, §5, §6

src-family kinases (SFK) = assay: Immunoblot for active SFKs (clone 28 antibody) in spinal cord cultures; assay type: cell-based, rat; details: 24 hours treatment; listed as MRS 1754
Experimental: as §4
The precise mechanism by which G-protein coupled receptors trans-activate receptor tyrosine kinases is complex and to some extent receptor-subtype specific (Luttrell et al., 1999; Downward, 2003; Piiper and Zeuzem, 2004; Waters et al., 2004). […] If this pathway was operative in spinal cord neurons, then antagonism of adenosine A2a receptors might lead to reduced src activation and antagonism of SFKs might be neuro-protective. Src is negatively regulated by phosphorylation of tyrosine 529 (refers to human src sequence) and an antibody that recognizes a de-phospho epitope in this region (“clone 28”) is a reliable measure of active src and SFKs (Kawakatsu et al., 1996). We began by asking for adenosine A2a receptors and active SFKs are present in the same cells and if so, their subcellular distribution. Pure motor neurons, grown in the presence of BDNF were immunostained with a rabbit anti-adenosine A2a receptor and the clone 28 antibody. One hundred percent of motor neurons expressed both antigens and on dendrites, the immunoreactivity formed discrete fine puncta (FIG. 5a). Many, but not all, puncta were stained with both antibodies. […]

[5] = test system: IGF receptor tyrosine kinase (IGFR); assay: Immunoblot for phospho-IGFR in spinal cord cultures; assay type: cell-based, rat; details: 5 nM, 30 min
Experimental: as §4, §6

In the case of C[C@]12O[C@H](C[C@]1(O)CO)n1c3ccccc3c3c4c(c5c6ccccc6n2c5c31)CNC4=O [CEP701], the “excitotoxic motor neuron death” value [1] is reported as “No motor neuron death occurred” and the “excitotoxic motor neuron death” value ([1]; listed as CEP-701) is reported as “completely blocked the loss of SMI(+) neurons”.
In the case of N#Cc1cc2[nH]c(=O)c(=O)[nH]c2cc1[N+](=O)[O-] [CNQX], the “motor neuron survival / toxicity of G85R SOD” value [2] is reported as “significantly greater number of motor neurons; also recorded: completely prevented the toxicity of mutant protein expression” and the “motor neuron survival / toxicity of G59S p150glued” value [3] is reported as “significantly greater number of motor neurons; also recorded: completely prevented the toxicity of mutant protein expression”.
For CCCn1c(=O)c2[nH]c(C3CCCC3)nc2n(CCC)c1=O [DPCPX], the “excitotoxic cell death in pre-treated cultures (previous observations)” value [4] is listed as “death occurred”.
In the case of O=S(=O)(NCCNC/C=C/c1ccc(Br)cc1)c1cccc2cnccc12 [H89], the “% of motor neurons killed (cell death) after excitotoxic insult” value (shortened to “% of motor neurons killed (cell death)”) [1] is reported as 40% and 53±5%.
With CCCn1c(=O)c2[nH]c(-c3ccc(OCC(=O)Nc4ccc(C#N)cc4)cc3)nc2n(CCC)c1=O [MRS1754] the “abundance of phosphoTrk” value (Trk) was “indistinguishable from the vehicle control”, the “% of motor neurons killed (cell death)” value [1] was 50% and the “% of motor neurons killed (cell death)” value ([1]; listed as MRS 1754) was ~40%. For the same molecule, the “abundance of phosphoMAPK” value (MAP kinase) was “indistinguishable from the vehicle control” and the “abundance of active SFKs” value (src-family kinases (SFK)) was “only reduced in cultures treated with KW6002”.
In the case of Cc1ccc(-c2nn(C(C)(C)C)c3ncnc(N)c23)cc1 [PP1], the “abundance of phosphoTrk” value (Trk) is reported as “reduction in the abundance of phosphorylated Trk; also recorded: reduction in the abundance of phosphoTrk”, the “% motor neuron survival after excitotoxic challenge” value ([1]; SFK inhibition before excitotoxicity assay) is reported as 100±2% and the “number of motor neurons surviving excitotoxic challenge” value ([1]; SFK inhibition, versus LacZ or vehicle) is reported as “statistically significant greater number of motor neurons”.
In the case of Nc1ncnc2c1ncn2C1CCCO1 (stereo not drawn) [SQ 22536], the “% of motor neurons killed (cell death)” value [1] is reported as 40% and 42±4% and the “basal survival of motor neurons” value ([1]; 4 day pre-treatment, without excitotoxic challenge) is reported as “did not adversely affect the basal survival of motor neurons”.
In the case of Nc1nc(NCCc2ccc(O)cc2)nc2nc(-c3ccco3)nn12 [ZM241385], the “excitotoxic cell death in pre-treated cultures (previous observations)” value [4] is listed as “no excitotoxic cell death”.
In the case of CCCC(=O)Nc1ncnc2c1ncn2[C@@H]1O[C@@H]2COP(=O)(O)O[C@H]2[C@H]1OC(=O)CCC [db-cAMP, dibutryl-cAMP], the “% of motor neurons killed (cell death)” value [1] is reported as −2±3% and the “excitotoxic motor neuron death” value [1] is reported as “No excitotoxic cell death occured”.
For C=C(C)[C@H]1CN[C@H](C(=O)O)[C@H]1CC(=O)O [kainic acid], the “loss of motor neurons” value ([1]; 100 μM for 1 hour, counted 24 hours later, 14-16 DIV) was ~45%.
In the case of IGF1: Insulin-like growth factor 1, the “IGFR phosphorylation upon acute administration” value [5] is reported as “robust induction of phospho-IGFR; also recorded: strong increase in IGFR phosphorylation”.
